Data: US7772208B2, “2′,3′-dideoxynucleoside analogues for the treatment or prevention of Flaviviridae infections” (Pharmasset, Inc., priority 2002, dated 2010)
Structures can show the parent of a compound that is named as a salt.

Experiments:
[1] = target: T1, NS5B enzyme (HCV polymerase, NS5Bt) (Hepatitis C virus genotype 1a, UniProt P27958); experiment: HCV polymerase (RdRp) inhibition assay; assay type: biochemical; conditions: for inhibition when treated: FIG. 4; for change of inhibition with increase in manganese concentration: FIG. 5
T1 construct: added a methionine and alanine to the N terminus and truncated the C-terminal 21 amino acids, replacing them with a hexahistidine tag; hexahistidine (C); made in house; host or cells: E. coli BL21(DE3)pLysS, plasmid pRSK1 in pET32a
Description: The HCV NS5B gene was amplified from a genotype 1A, clone, p134/pBRTM 2029-3011 (ΔAvrII). The primers used added a methionine and alanine to the N terminus and truncated the C-terminal 21 amino acids, replacing them with a hexahistidine tag, which allowed increased soluble product in E. coli and metal affinity purification. The PCR product was cloned into the pET32a expression construct (Novagen) at the NcoI and BamHI sites and the resultant plasmid (pRSK1) was sequenced by the Stanford PAN facility using standard methods. […] (DE3)pLysS cells (Novagen) were transformed by pRSK1 and grown at 37° C. to an optical density of 0.1, at which time the cells were switched to room temperature. At an optical density of 0.3-0.5, isopropyl-β-D-thiogalactopyanoside was added to a final concentration of 0.5 mM and the cells were harvested after 6 h. The cell pellet was frozen, thawed and resuspended in buffer containing 50 mM sodium phosphate pH 7.0, 10% glycerol, 0.3 M NaCl, 2 mM β-mercaptoethanol, 0.5% β-octyl-glucoside. The cell extract was sonicated, and cellular debris removed by centrifugation. The extract was incubated batch-wise with Talon metal affinity resin (Clontech), washed extensively with the above buffer, and then poured into a column for a stepwise imidazole elution. The polymerase, referred to as NS5Bt, eluted specifically between 70 mM and 250 mM imidazole and was ˜90% pure.
RdRp assays were a modification of the assays described in Kao et al. (Kao, C, C.; Yang, X.; Kline, A.; Wang, Q. M.; Barket, D.; Heinz, B. A. (2000) J. Virol. 74, 11121-11128). The template used allows for de novo synthesis and has its 3′ termini blocked by puromycin, which largely prevents the high molecular weight product from forming and allows for predominantly 24- and 25-nucleotide products to be seen. Each reaction contained 50 mM Hepes-NaOH pH 8.0, 0.65 μM template, 0.1 μM purified NS5Bt described above, 250 μM GTP, 5 μM UTP, 0.6 μM CTP, and 1 μM [αP32] ATP, 0.5 mM MnCl2, 7 mM MgCl2, 18 mM DTT, and the stated concentration of the analog. Reaction mixes were incubated at 27° C. for 45 min. Reactions were terminated by the addition of ⅕ the volume of 5× proteinase K mix (250 μg proteinase K/ml [Sigma, St Louis, Mo.], 375 mM Hepes-NaOH pH 8, 0.5% SDS, 25 mM EDTA) and incubated for 10 min at 37° C. Reactions were then precipitated with isopropanol, and glycogen as a carrier, and washed twice with 70% ethanol to remove salt. The RNA was resuspended in formamide loading buffer, heated to 65° C. for 3 min and loaded on a 20% acrylamide/7 M urea/TBE denaturing gel and separated by electrophoresis at 50° C. Quantification of bands was performed using Phosphoimager analysis.

HCV protease = conditions: SDS-PAGE and autoradiography assay; cited from earlier work

T1 sequence (P27958 2421-2990): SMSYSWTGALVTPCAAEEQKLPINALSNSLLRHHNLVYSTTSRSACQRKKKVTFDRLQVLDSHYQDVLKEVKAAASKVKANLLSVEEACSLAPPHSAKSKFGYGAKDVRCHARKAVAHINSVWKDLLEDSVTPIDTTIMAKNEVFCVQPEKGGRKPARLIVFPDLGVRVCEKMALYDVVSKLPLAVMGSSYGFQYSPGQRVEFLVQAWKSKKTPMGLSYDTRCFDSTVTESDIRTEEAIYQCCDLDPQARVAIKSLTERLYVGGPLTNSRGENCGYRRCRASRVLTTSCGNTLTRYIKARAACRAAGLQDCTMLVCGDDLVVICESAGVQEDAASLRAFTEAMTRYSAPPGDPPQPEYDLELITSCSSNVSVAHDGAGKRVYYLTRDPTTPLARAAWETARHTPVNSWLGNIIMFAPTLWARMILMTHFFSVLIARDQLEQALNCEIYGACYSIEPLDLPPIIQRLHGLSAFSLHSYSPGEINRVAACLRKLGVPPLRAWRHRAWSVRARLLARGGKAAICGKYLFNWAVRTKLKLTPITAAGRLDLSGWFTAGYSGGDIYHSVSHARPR

Compound	inhibition of NS5B enzyme ([1]; FIG. 2 and FIG. 3, triphosphate)	activity against HCV protease (HCV protease)	inhibition when treated [1]	change of inhibition with increase in manganese concentration [1]
Nc1nc(=O)n([C@@H]2CC[C@H](COP(=O)(O)OP(=O)(O)OP(=O)(O)O)O2)cc1F [β-L-ddFC triphosphate, β-L-2′,3′-Dideoxy-5-fluorocytidine triphosphate, triethylammonium salt]	dose-dependent inhibition			
CCCC(=O)c1cc2c(c(O)c1C)C(=O)C(=O)c1c(O)cccc1-2 [Sch 68631]		micromolar activity		
Nc1ccn([C@@H]2CC[C@H](CO)O2)c(=O)n1 [L-ddC, β-L-2′,3′-dideoxycytidine]			no inhibition	not affected
Nc1nc(=O)n([C@@H]2CC[C@H](CO)O2)cc1F [L-ddFC, β-L-2′,3′-Dideoxy-5-fluorocytidine]			dose-dependent inhibition	increase of inhibition
